Assay results reported in patent publication US11179501B2, “Bone morphogenetic protein pathway activation, compositions for ossification, and methods related thereto” (Emory University, priority 2011, dated 2021).

Assays:
[1] = test system: C2C12 cells; experiment: BMP-Noggin competitive alkaline phosphatase (ALP) assay; assay type: cell-based, Mouse; conditions: BMP-2 90-100 ng/ml plus noggin 100-120 ng/ml, 72 hours, fold over BMP alone control
Description: (§1) Their activity was evaluated by determining the potentiation of alkaline phosphatase activity in sub-optimal doses of BMP in the presence or absence of exogenously added noggin.
Mouse C2C12 cells and Dulbecco's modified Eagle's medium (DMEM) were purchased from ATCC (Manassas, Va.). The non-heat inactivated fetal bovine serum (FBS) was purchased from HyClone Laboratories, Inc. (Logan, Utah). The C2C12 cells at passages 5 to 10 were subcultured in T-75 cm^2 flasks in DMEM supplemented with 10% FBS at 37° C. in 5% CO2 with humidification. When the flasks reached 80% confluence, the cells were trypsinized and seeded in triplicate.
The C2C12 cells were plated at 200,000 cells/well in 6-well plates and grown overnight in DMEM containing 10% FBS. On day 2, the culture medium was replaced with DMEM containing 2% FBS and the cells were treated with 90-100 ng/ml of BMP-2 (as noted in each experiment), various concentrations of compound, and 100-120 ng/ml of noggin (as noted in each experiment) for 72 hours. The cells were washed with phosphate-buffered saline (PBS) and lysed by addition of lysis buffer (10 mM Tris-HCl pH 8.0, 1 mM MgCl2 and 1.0% Triton X-100). The cell lysates were centrifuged for 5 minutes at 13,000×g. The supernatant was removed and the aliquots were assayed for ALP activity and protein amount. The ALP activity was measured in triplicate using an ALP assay kit (Sigma-Aldrich, St. Louis, Mo.) in microtiter plates. The protein amount was determined with Bio-Rad protein assay reagent (Bio-Rad, Hercules, Calif.) using bovine serum albumin (BSA) as a standard. The ALP activity (nmoles of p-nitrophenol per ml) was normalized to the protein amount (nmoles of p-nitrophenol per μg).

[2] = test system: Sprague Dawley rats; experiment: Collagen disc implantation with macrolides in rat ectopic model; assay type: in vivo; set-up: Ave. (Xray score): scale not given here; conditions: for Ave. (Xray score) / Results (bone, animals with bone of 4): 100 ul, collagen, no BMP-2, 4 weeks
Text: Sprague Dawley rats about 5-6 weeks of age were chest implanted with a collagen disc (diameter of 1.0 cm and height of 2.0 mm; total volume of 150 cubic millimeters) and doses of macrolides in the absence of BMP-2. After 4 weeks the rats were sacrificed and evaluated for bone growth. […] In certain embodiments, the disclosure contemplates local bone formation for fracture repair, segmental bone defects, spine fusion, bone grafting, and regional bone enhancement for osteopenic bones before they fracture (e.g. hip, vertebral body, etc) by deliver locally to induce local bone formation.

[3] = test system: C2C12 cells; experiment: Alkaline phosphatase (ALP) assay: potentiation of BMP-2-induced ALP activity; conditions: C2C12 cells, 50 ng/ml BMP-2, 72 hours; fold over BMP control
Description: as §1
The BMP-potentiating activities of compounds may be evaluated by monitoring several markers of the osteoblastic phenotype corresponding to various time points during phenotype differentiation of C2C12 cells towards terminally differentiated osteoblasts.
The C2C12 cells at passages 5 to 10 were subcultured in T-75 cm^2 flasks in DMEM supplemented with 10% FBS at 37° C. in 5% CO2 with humidification. When the flasks reached 80% confluence, the cells were trypsinized and seeded in triplicate.
The C2C12 cells were plated at 200,000 cells/well in 6-well plates and grown overnight in DMEM containing 10% FBS. On day 2, the culture medium was replaced with DMEM containing 2% FBS and the cells were treated with various concentrations of compound for 24 hours. On day 3, the culture medium was replaced with DMEM containing 2% FBS and the cells were treated with 50 ng/ml of BMP-2 and various concentrations of compound for 72 hours. The cells were washed with phosphate-buffered saline (PBS) and lysed by addition of lysis buffer (10 mM Tris-HCl pH 8.0, 1 mM MgCl2 and 1.0% Triton X-100). The cell lysates were centrifuged for 5 minutes at 13,000×g. The supernatant was removed and the aliquots were assayed for ALP activity and protein amount. The ALP activity was measured in triplicate using an ALP assay kit (Sigma-Aldrich, St. Louis, Mo.) in microtiter plates. The protein amount was determined with Bio-Rad protein assay reagent (Bio-Rad, Hercules, Calif.) using bovine serum albumin (BSA) as a standard. The ALP activity (nmoles of p-nitrophenol per ml) was normalized to the protein amount (nmoles of p-nitrophenol per μg).

For C=CCC1C=C(C)CC(C)CC(OC)C2OC(O)(C(=O)C(=O)N3CCCCC3C(=O)OC(/C(C)=C/C3CCC(O)C(OC)C3)C(C)C(O)CC1=O)C(C)CC2OC (stereo not shown) [Tacrolimus, 5,6,8,11,12,13,14,15, 16,17,18,19,24,25,26,26a-hexadecahydro-5,19-dihydroxy-3-[(1E)-2-[4-hydroxy-3-methoxycyclohexyl]-1-methylethenyl]-14,16-dimethoxy-4,10,12,18-tetramethyl-8-(2-propen-1-yl)-15,19-epoxy-3H-pyrido[2,1-c][1,4]oxaazacyclotricosine-1,7,20,21(4H,23H)-tetrone], the “Fold increase in Noggin-Inhibition ALP Assay over BMP alone control” value [1] was 5, the “Ave. (Xray score)” value ([2]; dose 10 mM) was 0 and the “Results (bone, animals with bone of 4)” value ([2]; dose 10 mM) was “No bone (0 of 4)”. The “Ave. (Xray score)” value ([2]; dose 15 mM) was 0.5, the “Results (bone, animals with bone of 4)” value ([2]; dose 15 mM) was “Bone (1 of 4)” and the “Ave. (Xray score)” value ([2]; dose 20 mM) was 3.25. For the same compound, the “Results (bone, animals with bone of 4)” value ([2]; dose 20 mM) was “Bone (3 of 4)”, the “Ave. (Xray score)” value ([2]; dose 25 mM) was 4.25 and the “Results (bone, animals with bone of 4)” value ([2]; dose 25 mM) was “Bone (4 of 4)”. The “Ave. (Xray score)” value ([2]; dose 30 mM) was 2.5, the “Results (bone, animals with bone of 4)” value ([2]; dose 30 mM) was “Bone (3 of 4)” and the “Ave. (Xray score)” value ([2]; dose 35 mM) was 4. For the same compound, the “Results (bone, animals with bone of 4)” value ([2]; dose 35 mM) was “Bone (4 of 4)”, the “De novo bone formation” value ([2]; local, collagen disc, chest implant, absence of BMP-2, 4 weeks) was “De novo bone formation is demonstrated locally” and the “Fold increase in BMP-Potentiated ALP activity over BMP control” value (“Fold increase … over BMP control” for short) [3] was 7.
For CCC(=O)O[C@]1(C(=O)SCF)[C@H](C)C[C@H]2[C@@H]3C[C@H](F)C4=CC(=O)C=C[C@]4(C)[C@@]3(F)[C@@H](O)C[C@@]21C [Fluticasone Propionate, 6,9-difluoro-11-hydroxy-16-methyl-3-oxo-17-(1-oxopropoxy)-androsta-1,4-diene-17-carbothioic acid S-(fluoromethyl) ester], the “Fold increase in Noggin-Inhibition ALP Assay over BMP alone control” value [1] was 3 and the “Fold increase … over BMP control” value [3] was 6.
In the case of COc1cc(C)c(/C=C/C(C)=C/C=C/C(C)=C/C(=O)O)c(C)c1C [Acitretin, acitretin], the “Fold increase in Noggin-Inhibition ALP Assay over BMP alone control” value [1] was 3 and the “Fold increase … over BMP control” value [3] was 33.
In the case of CC(=O)S[C@@H]1CC2=CC(=O)CC[C@]2(C)[C@H]2CC[C@@]3(C)[C@@H](CC[C@@]34CCC(=O)O4)[C@H]12 [Spironolactone, spironolactone], the “Fold increase in Noggin-Inhibition ALP Assay over BMP alone control” value [1] was 4 and the “Fold increase … over BMP control” value [3] was 3.
In the case of CC1=C(/C=C/C(C)=C/C=C/C(C)=C\C(=O)O)C(C)(C)CCC1 [Isotretinoin, isotretinoin], the “Fold increase in Noggin-Inhibition ALP Assay over BMP alone control” value [1] was 3 and the “Fold increase … over BMP control” value [3] was 30.
With CC1=C(/C=C/C(C)=C/C=C/C(C)=C/C(=O)O)C(C)(C)CCC1 [Retinoic acid, (2E,4E,6E,8E)-3,7-dimethyl-9-(2,6,6-trimethylcyclohexen-1-yl)nona-2,4,6,8-tetraenoic acid] the “Fold increase in Noggin-Inhibition ALP Assay over BMP alone control” value [1] was 2 and the “Fold increase … over BMP control” value [3] was 11.
